Assay [1] has as its system MDA-MB-231, MCF7, MCF-10A. The assay is described as follows: Cytotoxicity relative to ipomoeassin F across the cell lines of Table 1. In kind it is cell-based, human. As to conditions: depending on the cell type (Table 1). As for the experimental part: Two human breast cancer cell lines (MDA-MB-231 and MCF7) and one human breast non-tumorigenic epithelial cell line (MCF-10A) were maintained in a DMEM high glucose culture medium supplemented with 10% fetal bovine serum (FBS) and 2 mM L-glutamine. The cells were grown in a humidified atmosphere of 5% CO2 and 95% air at 37 °C . The culture medi um w as changed every 2–4 days depending on cell density. Cell cultures were passaged once a week using 0.125% trypsin-EDTA to detach the cells from culture flasks/dishes.
The human colorectal cancer cell line HCT116 was maintained in McCoy’s 5A (modified) medium supplemented with 10% fetal bovine serum (FBS). […]
Viable cells were counted with a hemocytometer immediately before each experiment. […] Absorbance of formazan was detected by a microplate reader (BioTek Synergy H1) at 570 nm with 650 nm as the reference wavelength. The percentage of viability compared to the negative control (DMSO-treated cells) was determined . […]
MDA-MB-231, MCF-10A and HCT116. Viable cells were counted with a hemocytometer immediately before each experiment . […] Emission of each well at 620 nm was detected by a microplate reader (BioTek Synergy H1) at excitation 580 nm. […] Cells were treated for 96 h, then viability measured with AlamarBlue, detected using the conditions described but with a BMG Fluostar Optima Microplate Reader. […]

A further assay deals with HCT116. The assay is described as follows: cells. It is filed as cell-based. As to conditions: Homo sapiens, HCT-116; HCT116, 72 h, Alamar Blue, assayed separately; read-out: Cytotoxicity (IC50). On the procedure: AlamarBlue Cytotoxicity Assay
MDA-MB-231, MCF-10A and HCT116. Viable cells were counted with a hemocytometer immediately before each experiment . Experiments were done in triplicate. First, 100 μL of MDA-MB-231 cells or MCF-10A cells at the density of 50,000 cells/mL was seeded in a 96-well plate (5,000 cells/well) and then incubated at 37 °C and 5% CO2 for 24 h. The compounds were dissolved in DMSO (dimethyl sulfoxide) to make drug stocks (10 mM). The stock solutions were diluted with the complete DMEM high glucose culture medium to make a series of gradient fresh working solutions right before each test. Subsequently, the cells were treated with 100 μL of the freshly made gradient working solution in a total volume of 200 μL/well for 72 h. After that, the media were discarded and 200 μL of the fresh complete medium containing 10% of AlamarBlue (resazurin) stock solution was added to each well. The plate was then incubated at 37 °C and 5% CO2 for another 3 h. Emission of each well at 620 nm was detected by a microplate reader (BioTek Synergy H1) at excitation 580 nm. For HCT116 WT and mutant lines, cells were seeded at 1000 cells/ well in complete McCoys medium. Compounds were diluted from a DMSO stock into culture medium as described above. Cells were treated for 96 h, then viability measured with AlamarBlue, detected using the conditions described but with a BMG Fluostar Optima Microplate Reader. The percentage of viability compared to the negative control (DMSO-treated cells) was determined. […]
HCT116 and HEK293T. Viable cells were counted using an automated cell counter (BioRad TC20) before each experiment. […] Emission of each well at 620 nm was detected by a microplate reader (Perkin Elmer EnSpire) at excitation 580 nm. The percentage of viability compared to the negative control (DMSO -treated cells) was determined. […]
Figure S1. […] (C) HCT116 colon carcinoma cells were treated with increasing concentrations of analogues 8, 14, 15, CT8, ipomoeassin F or carrier (0.1% DMSO) and cell viability was assessed at 72 h by the Alamar Blue assay (mean ± S.D., n = 4). […]
Background: The colour change of resazurin is a common sign of viable cells or microbes.

One may read the IC50 as the point on the concentration scale where inhibition reaches its midpoint.

Molecules are shown by their SMILES.

For the molecule `C/C=C(\C)C(=O)O[C@H]1[C@H](OC(=O)/C=C/c2ccc(OCc3cn(CCOCCOCCOCCNC(=O)CCCC[C@@H]4SC[C@@H]5NC(=O)N[C@@H]54)nn3)cc2)[C@@H](O)[C@@H]2O[C@H]3[C@H](O[C@@H](CCCCC)CCCCCCC(=O)CCC(=O)OC[C@H]1O2)O[C@H](C)[C@H](OC(C)=O)[C@@H]3O` [compound 5], the “decrease in potency versus ipomoeassin F” value in assay [1] is about 5 fold.
For `C/C=C(\C)C(=O)O[C@@H]1[C@@H](O)[C@@H]2O[C@H]3[C@H](O[C@@H](CCCCC)CCCCCCC(=O)CCC(=O)OC[C@@H](O2)[C@H]1OC(=O)/C=C/c1ccccc1)O[C@H](C)[C@H](OC(C)=O)[C@@H]3O` [ipomoeassin F], the IC50 in the assay on HCT116 amounted to 8 nM.

The values are drawn from article PMC6627486, “Ipomoeassin F Binds Sec61α to Inhibit Protein Translocation” (Journal of the American Chemical Society, 2019).
